# Patent US6946121B2, “Composition in particular cosmetic or dermatological composition, containing oligosaccharides and preparation method and cosmetic treatment method” (Laboratories G Pharm, priority 1999, dated 2005)
# Entries after “also recorded” stand apart in the source; their conditions may differ.
# Test system: human basophils
# Assay: antidegranulating or antiactivating activity on human basophils by flow cytometry (anti-IgE stimulation, CD63 label)
# Assay type: cell-based
# Details: in vitro, same experimental conditions as the oligosaccharides
# Procedure: In order to test the antidegranulating or antiactivating activity of the oligosaccharides on human basophils by flow cytometry, leukocyte suspensions from different individuals selected as being good at responding to anti-IgE were used to isolate the leukocytes, by simple sedimentation at 1 g. These leukocytes are preincubated for 30 minutes with successive dilutions from 10 to 0.01 mg/ml of the test product. The basophils are then stimulated with a target concentration of a human anti-IgE labeled with a mixture of anti-IgE FITC and anti-CD63PE antibodies, CD63 being an activation label for human basophils. The percentages of activation or of inhibition are then calculated by flow cytometry. The biological activity of the oligosaccharides was thus evaluated.
# The same biological tests were performed on structural analogs such as raffinose or oligosaccharides comprising an α bond between a galactose unit and another saccharide unit such as in melibiose.
# Tests were thus undertaken. […] The percentage of inhibition was calculated by repeating the experiment three times.
smiles,measurement,value
OC[C@H]1O[C@H](OCC2O[C@@H](O)[C@H](O)[C@@H](O)[C@@H]2O)[C@H](O)[C@@H](O)[C@H]1O (stereo partly shown) [melibiose],activity on leukocytes / mastocytes,not active; also recorded: absolutely no activity
